# Measured values published in patent US10266513B2 (Pfizer Inc., priority 2012, dated 2019).
# Biological target: human full-length BTK Kinase (Homo sapiens (Human), UniProt Q06187)
# Test: Human BTK LanthaScreen Assay (TR-FRET)
# Type: biochemical
# Conditions: 50 μM ATP, FAM-Srctide peptide substrate, read-out: BTK Inhibition IC50
# Text: Human BTK LanthaScreen Assay
# human full-length BTK Kinase, sequence (Q06187 whole entry): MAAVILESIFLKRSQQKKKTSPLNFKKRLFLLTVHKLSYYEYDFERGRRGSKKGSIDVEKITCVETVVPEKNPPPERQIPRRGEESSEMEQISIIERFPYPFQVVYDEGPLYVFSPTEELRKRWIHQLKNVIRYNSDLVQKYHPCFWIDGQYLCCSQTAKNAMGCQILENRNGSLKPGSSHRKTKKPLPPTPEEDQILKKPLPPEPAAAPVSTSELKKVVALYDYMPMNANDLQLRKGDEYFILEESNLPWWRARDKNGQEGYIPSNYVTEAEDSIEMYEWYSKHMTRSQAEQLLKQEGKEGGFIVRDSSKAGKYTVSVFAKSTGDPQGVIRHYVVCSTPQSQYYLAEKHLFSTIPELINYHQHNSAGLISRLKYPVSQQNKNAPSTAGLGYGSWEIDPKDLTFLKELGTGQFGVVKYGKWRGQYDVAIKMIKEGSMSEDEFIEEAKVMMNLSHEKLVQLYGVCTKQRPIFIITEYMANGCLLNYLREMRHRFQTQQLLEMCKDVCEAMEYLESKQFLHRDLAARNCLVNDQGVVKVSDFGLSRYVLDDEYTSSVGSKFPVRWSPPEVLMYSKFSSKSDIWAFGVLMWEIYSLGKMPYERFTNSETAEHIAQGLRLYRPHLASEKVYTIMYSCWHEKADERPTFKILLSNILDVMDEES
row,SMILES,IC50 [nM]
1,"N#CN1CCCC(n2nc(-c3cccc(Oc4ccccc4)c3)c(C(N)=O)c2N)C1 (centres unmarked) [Example 89, 5-amino-1-(1-cyanopiperidin-3-yl)-3-(3-phenoxyphenyl)-1H-pyrazole-4-carboxamide]",7.7
2,"N#CN1CCCC(n2nc(-c3cccc(Cc4ccc(Cl)cc4)c3)c(C(N)=O)c2N)C1 (centres unmarked) [Example 92, 5-amino-3-[3-(4-chlorobenzyl)phenyl]-1-(1-cyanopiperidin-3-yl)-1H-pyrazole-4-carboxamide]",73.4
3,"N#CN1CCCC(n2nc(-c3cccc(Cc4ccc(F)cc4)c3)c(C(N)=O)c2N)C1 (centres unmarked) [Example 93, 5-amino-1-(1-cyanopiperidin-3-yl)-3-[3-(4-fluorobenzyl)phenyl]-1H-pyrazole-4-carboxamide]",35
4,"N#CN1CCCC(n2nc(-c3cccc(Oc4ccc(F)cc4)c3)c(C(N)=O)c2N)C1 (centres unmarked) [Example 94, 5-Amino-1-(1-cyanopiperidin-3-yl)-3-(3-(4-fluorophenoxy)phenyl)-1H-pyrazole-4-carboxamide]",50.2
5,"N#CN1CCCC(n2nc(-c3cccc(Oc4ccc(OC(F)(F)F)cc4)c3)c(C(N)=O)c2N)C1 (centres unmarked) [Example 95, 5-Amino-1-(1-cyanopiperidin-3-yl)-3-{3-[4-(trifluoromethoxy)phenoxy]phenyl}-1H-pyrazole-4-carboxamide]",79.2
6,"Cc1ccc(Oc2cccc(-c3nn(C4CCCN(C#N)C4)c(N)c3C(N)=O)c2)cc1F (centres unmarked) [Example 96, 5-amino-1-(1-cyanopiperidin-3-yl)-3-[3-(3-fluoro-4-methylphenoxy)phenyl]-1H-pyrazole-4-carboxamide]",21.9
7,"CC(C)c1ccccc1Oc1cccc(-c2nn(C3CCCN(C#N)C3)c(N)c2C(N)=O)c1 (centres unmarked) [Example 97, 5-amino-1-(1-cyanopiperidin-3-yl)-3-[3-(2-isopropylphenoxy)phenyl]-1H-pyrazole-4-carboxamide]",52.8
8,"Cc1ccc(Oc2cccc(-c3nn(C4CCCN(C#N)C4)c(N)c3C(N)=O)c2)cc1 (centres unmarked) [Example 98, 5-amino-1-(1-cyanopiperidin-3-yl)-3-[3-(4-methylphenoxy)phenyl]-1H-pyrazole-4-carboxamide]",27.3
9,"Cc1cc(Oc2cccc(-c3nn(C4CCCN(C#N)C4)c(N)c3C(N)=O)c2)ccc1Cl (centres unmarked) [Example 99, 5-amino-3-[3-(4-chloro-3-methylphenoxy)-phenyl]-1-(1-cyanopiperidin-3-yl)-1H-pyrazole-4-carboxamide]",15.6
10,"CC(C)c1ccc(Oc2cccc(-c3nn(C4CCCN(C#N)C4)c(N)c3C(N)=O)c2)cc1 (centres unmarked) [Example 100, 5-amino-1-(1-cyanopiperidin-3-yl)-3-[3-(4-isopropylphenoxy)phenyl]-1H-pyrazole-4-carboxamide]",16.3
11,"Cc1cc(Oc2cccc(-c3nn(C4CCCN(C#N)C4)c(N)c3C(N)=O)c2)ccc1C(C)C (centres unmarked) [Example 101, 5-amino-1-(1-cyanopiperidin-3-yl)-3-[3-(4-isopropyl-3-methylphenoxy)phenyl]-1H-pyrazole-4-carboxamide]",5.3
12,"N#CN1CCCC(n2nc(-c3cccc(Oc4ccc(F)c(F)c4)c3)c(C(N)=O)c2N)C1 (centres unmarked) [Example 105, 5-amino-1-(1-cyanopiperidin-3-yl)-3-[3-(3,4-difluorophenoxy)phenyl]-1H-pyrazole-4-carboxamide]",55.5
13,"N#CN1CCCC(n2nc(-c3cccc(Oc4ccc(OC(F)(F)F)c(F)c4)c3)c(C(N)=O)c2N)C1 (centres unmarked) [Example 106, 5-amino-1-(1-cyanopiperidin-3-yl)-3-{3-[3-fluoro-4-(trifluoromethoxy)phenoxy]phenyl}-1H-pyrazole-4-carboxamide]",58
14,"N#CN1CCCC(n2nc(-c3ccc(Oc4ccccc4)nc3)c(C(N)=O)c2N)C1 (centres unmarked) [Example 107, 5-amino-1-(1-cyanopiperidin-3-yl)-3-(6-phenoxypyridin-3-yl)-1H-pyrazole-4-carboxamide]",171
15,"N#CN1CCCC(n2nc(-c3ccc(Oc4ccc(Cl)cn4)cc3)c(C(N)=O)c2N)C1 (centres unmarked) [Example 108, 5-amino-3-(4-((5-chloropyridin-2-yl)oxy)phenyl)-1-(1-cyanopiperidin-3-yl)-1H-pyrazole-4-carboxamide]",7.8
16,"N#CN1CCCC(n2nc(-c3ccc(Oc4ccc(F)cn4)cc3)c(C(N)=O)c2N)C1 (centres unmarked) [Example 111, 5-amino-1-(1-cyanopiperidin-3-yl)-3-{4-[(5-fluoropyridin-2-yl)oxy]phenyl}-1H-pyrazole-4-carboxamide]",119
17,"Cc1ccc(Oc2ccc(-c3nn(C4CCCN(C#N)C4)c(N)c3C(N)=O)cc2)nc1 (centres unmarked) [Example 112, 5-amino-1-(1-cyanopiperidin-3-yl)-3-(4-((5-methylpyridin-2-yl)oxy)phenyl)-1H-pyrazole-4-carboxamide]",16.5
18,"N#CN1CCCC(n2nc(-c3ccc(Oc4ncc(F)cc4F)cc3)c(C(N)=O)c2N)C1 (centres unmarked) [Example 115, 5-amino-1-(1-cyanopiperidin-3-yl)-3-{4-[(3,5-difluoropyridin-2-yl)oxy]phenyl}-1H-pyrazole-4-carboxamide]",3.7

row,SMILES,IC50 [nM]
1,N#CN1CCC[C@H](n2nc(-c3ccc(Oc4cccc(C(F)(F)F)n4)cc3)c(C(N)=O)c2N)C1 [Example 117],18.9
2,"N#CN1CCC[C@H](n2nc(-c3ccc(Oc4ncc(Cl)cc4F)cc3)c(C(N)=O)c2N)C1 [Example 119, (S)-5-amino-3-(4-((5-chloro-3-fluoropyridin-2-yl)oxy)phenyl)-1-(1-cyanopiperidin-3-yl)-1H-pyrazole-4-carboxamide]",60.5
3,"N#CN1CCCC(n2nc(-c3ccc(Oc4ccc(F)cc4)cc3Cl)c(C(N)=O)c2N)C1 (centres unmarked) [Example 120, 5-amino-3-[2-chloro-4-(4-fluorophenoxy)phenyl]-1-(1-cyanopiperidin-3-yl)-1H-pyrazole-4-carboxamide]",141
4,"C[C@H]1CC[C@@H](n2nc(-c3ccc(Oc4ccc(F)cc4F)cc3)c(C(N)=O)c2N)CN1C#N [Example 122, 5-amino-1-[(3R,6S)-1-cyano-6-methylpiperidin-3-yl]-3-[4-(2,4-difluorophenoxy)phenyl]-1H-pyrazole-4-carboxamide]",0.46
5,"C[C@@H]1CC[C@H](n2nc(-c3ccc(Oc4ccc(F)cc4F)cc3)c(C(N)=O)c2N)CN1C#N [Example 123, 5-amino-1-[(3S,6R)-1-cyano-6-methylpiperidin-3-yl]-3-[4-(2,4-difluorophenoxy)phenyl]-1H-pyrazole-4-carboxamide]",396
6,"N#CN1CCCC(n2nc(-c3ccc(Sc4ccc(Cl)cc4)cc3)c(C(N)=O)c2N)C1 (centres unmarked) [Example 124, 5-amino-3-{4-[(4-chlorophenyl)thio]phenyl}-1-(1-cyanopiperidin-3-yl)-1H-pyrazole-4-carboxamide]",0.74
7,"N#CN1CCCC(n2nc(-c3ccc(Sc4ccccc4)cc3)c(C(N)=O)c2N)C1 (centres unmarked) [Example 125, 5-amino-1-(1-cyanopiperidin-3-yl)-3-[4-(phenylthio)phenyl]-1H-pyrazole-4-carboxamide]",0.4
8,"C/C=C/C(=O)N1CCCC(n2nc(-c3ccc(Oc4ccccc4)cc3)c(C(N)=O)c2N)C1 (centres unmarked) [Example 128, 5-amino-1-{1-[(2E)-but-2-enoyl]piperidin-3-yl}-3-(4-phenoxyphenyl)-1H-pyrazole-4-carboxamide]",4.5
9,"NC(=O)c1c(-c2ccc(Oc3ccccc3)cc2)nn([C@@H]2CCCN(C(=O)/C=C/CO)C2)c1N [Example 129, 5-amino-1-{(3R)-1-[(2E)-4-hydroxybut-2-enoyl]piperidin-3-yl}-3-(4-phenoxyphenyl)-1H-pyrazole-4-carboxamide]",1
10,"NC(=O)c1c(-c2ccc(Oc3ccc(Cl)cc3)cc2)nn([C@@H]2CCCN(C(=O)/C=C/CF)C2)c1N [Example 132, 5-amino-3-[4-(4-chlorophenoxy)phenyl]-1-{(3R)-1-[(2E)-4-fluorobut-2-enoyl]piperidin-3-yl}-1H-pyrazole-4-carboxamide]",1.1
11,"NC(=O)c1c(-c2ccc(Oc3ccc(Cl)cc3)cc2)nn([C@@H]2CCCN(C(=O)/C=C/C(F)F)C2)c1N [Example 133, 5-amino-3-[4-(4-chlorophenoxy)phenyl]-1-{(3R)-1-[(2E)-4,4-difluorobut-2-enoyl]piperidin-3-yl}-1H-pyrazole-4-carboxamide]",0.38
12,"C=C(F)C(=O)N1CCC[C@@H](n2nc(-c3ccc(Oc4ccc(Cl)cc4)cc3)c(C(N)=O)c2N)C1 [Example 134, 5-amino-3-[4-(4-chlorophenoxy)phenyl]-1-[(3R)-1-(2-fluoroacryloyl)piperidin-3-yl]-1H-pyrazole-4-carboxamide]",5
13,"N#C/C=C/C(=O)N1CCC[C@@H](n2nc(-c3ccc(Oc4ccc(Cl)cc4)cc3)c(C(N)=O)c2N)C1 [Example 135, 5-amino-3-[4-(4-chlorophenoxy)phenyl]-1-{(3R)-1-[(2E)-3-cyanoprop-2-enoyl]piperidin-3-yl}-1H-pyrazole-4-carboxamide]",1.2
14,"COC/C=C/C(=O)N1CCC[C@@H](n2nc(-c3ccc(Oc4ccc(F)cc4F)cc3)c(C(N)=O)c2N)C1 [Example 138, 5-amino-3-[4-(2,4-difluorophenoxy)phenyl]-1-{(3R)-1-[(2E)-4-methoxybut-2-enoyl]piperidin-3-yl}-1H-pyrazole-4-carboxamide]",21.8
15,"C=C(C)C(=O)N1CCC[C@@H](n2nc(-c3ccc(Oc4ccc(F)cc4F)cc3)c(C(N)=O)c2N)C1 [Example 139, 5-amino-3-[4-(2,4-difluorophenoxy)phenyl]-1-[(3R)-1-(2-methylacryloyl)piperidin-3-yl]-1H-pyrazole-4-carboxamide]",247
16,"NC(=O)c1c(-c2ccc(Oc3ccc(F)cc3F)cc2)nn([C@@H]2CCCN(C(=O)/C=C/CCO)C2)c1N [Example 141, 5-amino-3-[4-(2,4-difluorophenoxy)phenyl]-1-{(3R)-1-[(2E)-5-hydroxypent-2-enoyl]piperidin-3-yl}-1H-pyrazole-4-carboxamide]",58
17,"C/C=C/C(=O)N1CCC[C@@H](n2nc(-c3ccc(Oc4ccc(F)cc4F)cc3)c(C(N)=O)c2N)C1 [Example 142, 5-amino-1-{(3R)-1-[(2E)-but-2-enoyl]piperidin-3-yl}-3-[4-(2,4-difluorophenoxy)phenyl]-1H-pyrazole-4-carboxamide]",61
